Reference: PubChem BioAssay AID1963967 (Molecular Pharmacology Branch, DTP, NCI, 2024)

Tested on: 855422-203-R-J1-PDC spheroids with HUVEC/MSC, viability
Assay: Anticancer human tumor 855422-203-R-J1-PDC patient-derived bladder carcinoma cell line growth inhibition [PI3K]
Details: for IC50: curve of first compound; for viability, T/C: stronger effect = lower value
Outline: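 We assembled tumor spheroids that included a stromal compartment of HUVEC and MSCs, then exposed them to targeted agents alone and together with PI3K pathway inhibitors. Concentration series descended by half-log from clinically achievable Cmax levels. Viability served as the endpoint.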

[1] = second compound 0.0316 µM, first compound 0.0316 µM
[2] = second compound 0.0316 µM, first compound 0.1 µM
[3] = second compound 0.0316 µM, first compound 0.316 µM
[4] = second compound 0.0316 µM, first compound 1 µM
[5] = second compound 0.0316 µM, first compound 3.16 µM
[6] = second compound 0.0316 µM, first compound 10 µM
[7] = second compound 0.1 µM, first compound 0.0316 µM
[8] = second compound 0.1 µM, first compound 0.1 µM
[9] = second compound 0.1 µM, first compound 0.316 µM
[10] = second compound 0.1 µM, first compound 1 µM
[11] = second compound 0.1 µM, first compound 3.16 µM
[12] = second compound 0.1 µM, first compound 10 µM
[13] = second compound 0.316 µM, first compound 0.0316 µM
[14] = second compound 0.316 µM, first compound 0.1 µM
[15] = second compound 0.316 µM, first compound 0.316 µM
[16] = second compound 0.316 µM, first compound 1 µM
[17] = second compound 0.316 µM, first compound 3.16 µM
[18] = second compound 0.316 µM, first compound 10 µM
[19] = second compound 1 µM, first compound 0.0316 µM
[20] = second compound 1 µM, first compound 0.1 µM
[21] = second compound 1 µM, first compound 0.316 µM
[22] = second compound 1 µM, first compound 1 µM
[23] = second compound 1 µM, first compound 3.16 µM
[24] = second compound 1 µM, first compound 10 µM
[25] = second compound 0.00316 µM, first compound 0.0316 µM
[26] = second compound 0.00316 µM, first compound 0.1 µM
[27] = second compound 0.00316 µM, first compound 0.316 µM
[28] = second compound 0.00316 µM, first compound 1 µM
[29] = second compound 0.00316 µM, first compound 3.16 µM
[30] = second compound 0.00316 µM, first compound 10 µM
[31] = second compound 0.01 µM, first compound 0.0316 µM
[32] = second compound 0.01 µM, first compound 0.1 µM
[33] = second compound 0.01 µM, first compound 0.316 µM
[34] = second compound 0.01 µM, first compound 1 µM
[35] = second compound 0.01 µM, first compound 3.16 µM
[36] = second compound 0.01 µM, first compound 10 µM
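Also: agents incubated with spheroids for one week before read-out.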
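For viability, T/C in this document: 100% = DMSO vehicle-treated control wells.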

Compound: CC(Cn1ccc(-c2ccc(C#N)c(Cl)c2)n1)NC(=O)c1cc(C(C)O)[nH]n1 (stereo unspecified) + CC(Nc1ncnc2nc[nH]c12)c1cc2cccc(Cl)c2c(=O)n1-c1ccccc1
- IC50 (second compound 0.0316 µM): > 10 µM
- IC50 (second compound 0.1 µM): > 10 µM
- IC50 (second compound 0.316 µM): > 10 µM
- IC50 (second compound 1 µM): > 10 µM
- IC50 (second compound 3.16 µM): > 10 µM
- IC50 (second compound 10 µM): > 10 µM
- viability, T/C [1]: 105%
- viability, T/C [2]: 93.3%
- viability, T/C [3]: 113%
- viability, T/C [4]: 98.3%
- viability, T/C [5]: 91.6%
- viability, T/C [6]: 67.8%
- viability, T/C [7]: 105%
- viability, T/C [8]: 107%
- viability, T/C [9]: 106%
- viability, T/C [10]: 105%
- viability, T/C [11]: 90.3%
- viability, T/C [12]: 82.8%
- viability, T/C [13]: 97%
- viability, T/C [14]: 104%
- viability, T/C [15]: 96.6%
- viability, T/C [16]: 112%
- viability, T/C [17]: 89.9%
- viability, T/C [18]: 77.4%
- viability, T/C [19]: 92.9%
- viability, T/C [20]: 108%
- viability, T/C [21]: 107%
- viability, T/C [22]: 103%
- viability, T/C [23]: 95.5%
- viability, T/C [24]: 95.7%
- viability, T/C (second compound 3.16 µM, first compound 0.0316 µM): 97.3%
- viability, T/C (second compound 3.16 µM, first compound 0.1 µM): 91.1%
- viability, T/C (second compound 3.16 µM, first compound 0.316 µM): 108%
- viability, T/C (second compound 3.16 µM, first compound 1 µM): 101%
- viability, T/C (second compound 3.16 µM, first compound 3.16 µM): 90.4%
- viability, T/C (second compound 3.16 µM, first compound 10 µM): 78.7%
- viability, T/C (second compound 10 µM, first compound 0.0316 µM): 88.5%
- viability, T/C (second compound 10 µM, first compound 0.1 µM): 84.9%
- viability, T/C (second compound 10 µM, first compound 0.316 µM): 89.5%
- viability, T/C (second compound 10 µM, first compound 1 µM): 82.3%
- viability, T/C (second compound 10 µM, first compound 3.16 µM): 74.5%
- viability, T/C (second compound 10 µM, first compound 10 µM): 70%

Compound: CC(Cn1ccc(-c2ccc(C#N)c(Cl)c2)n1)NC(=O)c1cc(C(C)O)[nH]n1 (stereo unspecified) + CC(Nc1ccc2c(c1)OCCn1cc(N3C(=O)OCC3C(F)F)nc1-2)C(N)=O
- IC50 (second compound 0.00316 µM): > 10 µM
- IC50 (second compound 0.01 µM): > 10 µM
- IC50 (second compound 0.0316 µM): > 10 µM
- IC50 (second compound 0.1 µM): > 10 µM
- IC50 (second compound 0.316 µM): 1.67 µM
- IC50 (second compound 1 µM): < 0.0316 µM
- viability, T/C [25]: 106%
- viability, T/C [26]: 88%
- viability, T/C [27]: 115%
- viability, T/C [28]: 86.7%
- viability, T/C [29]: 99%
- viability, T/C [30]: 86%
- viability, T/C [31]: 105%
- viability, T/C [32]: 82.4%
- viability, T/C [33]: 107%
- viability, T/C [34]: 99.9%
- viability, T/C [35]: 88.4%
- viability, T/C [36]: 79.6%
- viability, T/C [1]: 83.3%
- viability, T/C [2]: 83.7%
- viability, T/C [3]: 82%
- viability, T/C [4]: 85%
- viability, T/C [5]: 97.8%
- viability, T/C [6]: 70.3%
- viability, T/C [7]: 67.1%
- viability, T/C [8]: 71.9%
- viability, T/C [9]: 75.6%
- viability, T/C [10]: 71.8%
- viability, T/C [11]: 66.4%
- viability, T/C [12]: 63.4%
- viability, T/C [13]: 53.4%
- viability, T/C [14]: 51.3%
- viability, T/C [15]: 59.7%
- viability, T/C [16]: 49.6%
- viability, T/C [17]: 46.1%
- viability, T/C [18]: 44.7%
- viability, T/C [19]: 35.6%
- viability, T/C [20]: 40.9%
- viability, T/C [21]: 36.1%
- viability, T/C [22]: 36.2%
- viability, T/C [23]: 33.6%
- viability, T/C [24]: 28.9%

Compound: C#Cc1c(F)ccc2cc(O)cc(-c3ncc4c(N5CC6CCC(C5)N6)nc(OCC56CCCN5CC(F)C6)nc4c3F)c12 (stereo unspecified) + COc1c(OCCCN2CCOCC2)ccc2c3n(c(=NC(=O)c4cnc(N)nc4)nc12)CCN3
- IC50 (second compound 0.00316 µM): > 10 µM
- IC50 (second compound 0.01 µM): > 10 µM
- IC50 (second compound 0.0316 µM): > 10 µM
- IC50 (second compound 0.1 µM): < 0.0316 µM
- IC50 (second compound 0.316 µM): < 0.0316 µM
- IC50 (second compound 1 µM): < 0.0316 µM
- viability, T/C [25]: 103%
- viability, T/C [26]: 86.9%
- viability, T/C [27]: 105%
- viability, T/C [28]: 101%
- viability, T/C [29]: 103%
- viability, T/C [30]: 107%
- viability, T/C [31]: 97.7%
- viability, T/C [32]: 90.9%
- viability, T/C [33]: 83.3%
- viability, T/C [34]: 91%
- viability, T/C [35]: 92.8%
- viability, T/C [36]: 105%
- viability, T/C [1]: 57.6%
- viability, T/C [2]: 65.4%
- viability, T/C [3]: 62.7%
- viability, T/C [4]: 60%
- viability, T/C [5]: 59.5%
- viability, T/C [6]: 50.4%
- viability, T/C [7]: 25.9%
- viability, T/C [8]: 26.7%
- viability, T/C [9]: 26.5%
- viability, T/C [10]: 24.8%
- viability, T/C [11]: 23.8%
- viability, T/C [12]: 20.4%
- viability, T/C [13]: 10.8%
- viability, T/C [14]: 8.21%
- viability, T/C [15]: 9.76%
- viability, T/C [16]: 7.21%
- viability, T/C [17]: 6.7%
- viability, T/C [18]: 3.41%
- viability, T/C [19]: 3.53%
- viability, T/C [20]: 3.24%
- viability, T/C [21]: 3.78%
- viability, T/C [22]: 2.64%
- viability, T/C [23]: 2.16%
- viability, T/C [24]: 0.32%
